Measured values from patent US20260159474A1, “Aminoindane Compounds and Compositions and Methods of Their Therapeutic Use” (Solvonis Therapeutics Ireland Holdings Limited, priority 2021, published 2026).
≈ marks a conversion by molar mass, not a printed value.

Legend:
[1] = Solubility in PBS (pH 7.4), HPLC-UV; assay type: physicochemical; conditions: for Characterization (solubility class): PBS pH 7.4; for solubility at 120 min: PBS pH 7.4, room temperature, 2% DMSO
Description: Stock solutions of therapeutic compounds (20 mM) were prepared in DMSO, on the same day of the experiment when feasible. These solutions were compared with an external standard solution of known concentration via HPLC-UV. To prepare the standard, 4 μL from a 20 mM compound stock solution was added to DMSO in a vial/well, and mixed with shaking at room temperature for 10 minutes. The standard buffer used for the assessment was PBS buffer (pH 7.4), but alternative buffers may also be used, such as biologically relevant Fluids, including Simulated Gastric fluid (SGF) at pH 1.2, Fasted State Simulated Intestinal Fluid (FaSSIF) at pH 6.5, and Fed State Simulated Intestinal Fluid (FeSSIF) at pH 5.0.
An isotonic phosphate buffer (iPBS) was prepared by dissolving a phosphate buffered saline tab (Sigma-Aldrich P4417-50Tab) in 200 mL of deionized water, the final composition of the solution being 10 mM PBS, 2.7 mM kCl, and 137 mM NaCl, yielding a final pH of 7.4 at 25° C. Samples were prepared by dispensing 8 μL from a 20 mM compound stock solution in DMSO in a vial/well in duplicate, adding 392 μL of buffer in each vial/well, and mixed by shaking at room temperature for 120 minutes. The final compound concentration was approximately 400 μM, while the final concentration of DMSO was about 2%. The solutions were then filtered prior to analysis.
Concentrations were determined by comparing UV absorbance of the test solution and of the known standard solution following HPLC separation using a generic fast gradient method employing a DAD detector and UV detection at 230 and 254 nm. Concerning the HPLC Mobile phase, Phase A was a 50 mM ammonium acetate aqueous solution (pH adjusted to 7.4 with ammonia), and Phase B was acetonitrile. For data analysis, chromatographic peaks were automatically integrated, and the parameters were optimized to enable consistent integration of all chromatograms in the entire analytical run. The solubility of each compound was expressed as the ratio of compound amount in the sample test solution to the amount of compound in the standard solution, calculated from the equation “solubility of sample=peak area of sample/peak area of standard×concentration of standard.”

[2] = Plasma protein binding by equilibrium dialysis, rat plasma; assay type: in vitro ADME; conditions: for Rat Plasma (Fu %): fraction unbound, 0.5 μM; for fraction unbound at 5 h, 0.5 μM: male, Sprague Dawley, rat, plasma, pH 7.4, read-out: Rat Plasma (Fu %)
Description: Methods: Plasma protein binding and blood tissue binding of test items (0.5 μM) was determined using biological samples from male Sprague Dawley (SD) rats and humans. […] Dexamethasone was used as a control compound for lung tissue binding. Various biological samples were spiked with test compounds according to the methods that follow.
Preparation of plasma or blood samples: An appropriate amount of test compound was dissolved in DMSO to yield a 10 mM solution. Further dilutions, to obtain 50 μM working solutions (WS), were then prepared using 50% acetonitrile in Milli-Q water. These 100×WS were used to spike plasma or blood to obtain a final concentration of 0.5 μM. From this initial spiking solution, control samples (n=3), referred to as T=0, were immediately extracted and used to calculate the recovery of the test item.
An equilibrium dialysis method was performed to determine protein binding in the various biological samples described herein. Materials were prepared and methods were in accordance with the following procedures.
Membranes were prepared for use in the equilibrium dialysis experiment. by soaking in deionized water for at least 60 minutes. After this period, 20% of pure ethanol was added, and the membranes were left in this solution for at least 20 minutes. The membranes were then rinsed in Milli-Q water prior to use.
To initiate the experiment, 150 μL of test item-free buffer (isotonic phosphate buffer for plasma and blood, artificial CSF buffer for brain or HBSS buffer for lung) was dispensed on one half-well of a 96-well dialyzer apparatus (HTDialysis LLC), and 150 μL of spiked matrix (plasma, blood, brain or lung) was loaded on the other half-well. Alternative volumes may be used according to the operating instructions of HTDialysis.
Dialysis buffer was prepared by dissolving Na2HPO4 8.69 g, KH2PO4 1.90 g, and NaCl 4.11 g in […] of MilliQ water, and adjusting the pH to 7.4 with H3PO4. At the end of the equilibration period (device is sealed and incubated under shaking for 5 hours at 37° C.), 50 μL of dialysed matrix will be added to 50 μL of corresponding test item free dialysed buffer, and vice versa for buffer, such that the volume of buffer to matrix will be the same. Samples were extracted by protein precipitation with 300 μL of acetonitrile containing rolipram (for positive ionization mode) or diclofenac (for negative ionization mode) as internal standard and centrifuged for 10 minutes at 2800 rpm. […]
Samples were then injected onto an HPLC MS/MS or UPLC MS/MS system. In order to control the integrity of the membrane after the dialysis process, the presence of protein was assessed in the buffer compartment. […]
Samples were analyzed in a LC-MS/MS system using an analytical method to monitor the compound to internal standard peak area ratios as representative of the compound concentrations. Alternatively, samples were analyzed by RapidFire.
Protein binding in plasma, blood, brain, and lung tissue samples were determined with the following formula: Afu=Buffer/x, wherein “x” may be plasma, blood, brain, or lung, and “Afu” is the apparent fraction unbound, and the other variables refer to the analyte/internal standard ratio determined in their specific compartment (buffer, plasma, blood, brain homogenate, and lung homogenate); Fucr-(1/D)/[(1/Afu)-1+(1/D)], wherein fucr is the fraction unbound corrected, D is the matrix dilution factor (D=1 for plasma, 2 for blood, 3 for brain, 7 for lung). % Binding=(1−fucr)×100 and % Unbound=100—% Bound. […]

[3] = PBS buffer, aqueous buffer, kinetic from dmso stock

| Compound | Characterization (solubility class) [1] | solubility at 120 min [1] [µM] | Rat Plasma (Fu %) [2] | solubility at 120 min [1, 3] [µM] | fraction unbound at 5 h, 0.5 μM [2] |
| --- | --- | --- | --- | --- | --- |
| CNC(C)Cc1ccc2c(c1)OCO2 (centres unmarked) [MDMA] | High solubility | 386 (≈ 74.6 µg/mL) | >50% | – | – |
| COC(=O)c1ccc2c(c1)CC(N)C2 (centres unmarked) [CMP-405, 2-aminoindane-5-methylcarboxylate] | High solubility | – | high binding in plasma specimens and Low | 392 (≈ 75 µg/mL) | – |
| COc1ccc2c(c1)CC(N)C2 (centres unmarked) [MEAI, 5-methoxy-2-aminoindane] | High solubility | – | – | 374 (≈ 61 µg/mL) | > 0.5 |
| COC(=O)c1cc2c(cc1OC)CC(N)C2 (centres unmarked) [CMP-401] | – | – | Low | – | – |
| COc1cc2c(cc1C)CC(N)C2 (centres unmarked) [MMAI, 5-methoxy-6-methyl-2-aminoindane] | – | – | – | – | > 0.5 |
